Measured values reported in PMC3326631, “Synthesis and biological evaluation of nojirimycin- and pyrrolidine-based trehalase inhibitors” (Beilstein Journal of Organic Chemistry, 2012).
Entries after “also recorded” stand apart in the source; their conditions may differ. Where two headings read alike, the source gives them in different places.

Experiments:
porcine kidney trehalase [1] = molecular target: T1, porcine kidney trehalase (Sus scrofa, UniProt I3LIR5); settings: mean ± SE, cited from earlier work
T1 construct: trehalases from porcine kidney and insects have different recognition requirements; from tissue; host or cells: porcine kidney
T1 sequence (I3LIR5 24-583): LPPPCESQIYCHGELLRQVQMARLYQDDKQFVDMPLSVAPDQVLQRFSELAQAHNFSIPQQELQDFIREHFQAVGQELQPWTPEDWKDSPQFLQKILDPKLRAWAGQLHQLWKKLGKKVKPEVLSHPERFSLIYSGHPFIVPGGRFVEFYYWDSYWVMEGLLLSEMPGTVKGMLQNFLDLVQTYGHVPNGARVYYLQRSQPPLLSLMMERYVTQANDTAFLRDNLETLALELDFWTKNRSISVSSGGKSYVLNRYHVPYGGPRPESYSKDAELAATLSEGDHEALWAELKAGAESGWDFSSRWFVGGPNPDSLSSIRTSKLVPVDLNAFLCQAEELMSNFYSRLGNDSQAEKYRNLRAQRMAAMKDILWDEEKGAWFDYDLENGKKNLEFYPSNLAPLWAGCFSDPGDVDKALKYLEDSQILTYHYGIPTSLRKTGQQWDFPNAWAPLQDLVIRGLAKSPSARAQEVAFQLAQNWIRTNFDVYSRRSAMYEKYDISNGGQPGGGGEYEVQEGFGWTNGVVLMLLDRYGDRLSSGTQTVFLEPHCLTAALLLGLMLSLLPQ

C. riparius trehalase = C. riparius trehalase (Chironomus riparius, UniProt J7EJ73); assay: Trehalase inhibition, coupled assay with glucose-6-phosphate dehydrogenase and hexokinase (insect enzyme); format: biochemical; settings: for selectivity between insect and porcine trehalase (times more active): C. riparius trehalase versus porcine kidney trehalase, from IC50 values; for inhibitory activity against insect trehalase (in words): screening at fixed concentration of 1 mM; for IC50 C. riparius trehalase: trehalose fixed close to Km (0.5 mM), 30 °C, mean ± SE of three independent experiments
Method: (§1) Trehalase activity was measured through a coupled assay with glucose-6-phosphate dehydrogenase and hexokinase according to Wegener et al.. To examine the potential of each compound as a trehalase inhibitor, screening assays of potential inhibitors were carried out at a fixed concentration of 1 mM. […] Initial rates as a function of inhibitor concentration were fitted to the following equation: […]
(§2) where νi and ν are the initial rate in the presence and in the absence of the inhibitor, respectively, [I] is the inhibitor concentration, IC50 is the inhibitor concentration producing half-maximal inhibition, and n is the Hill coefficient.
(§3) All enzyme assays were performed in triplicate at 30 °C by using sample volumes varying from 5 to 20 µL in 1 mL test tubes and using a Cary3 UV–vis spectrophotometer. Enzyme activities were analyzed by Cary Win UV application software for Windows XP. The specific activity (U mg^−1) was expressed as µmol min^−1(mg protein)^−1. Values were expressed as mean ± SE of replicated.

porcine kidney trehalase [2] = molecular target: T1, porcine kidney trehalase; assay: Trehalase inhibition, coupled assay with glucose-6-phosphate dehydrogenase and hexokinase (porcine enzyme); format: biochemical; settings: for inhibitory activity against porcine trehalase (in words): screening at fixed concentration of 1 mM; for IC50 porcine kidney trehalase / IC50: trehalose fixed close to Km (2.5 mM), 30 °C, mean ± SE of three independent experiments
Method: Synthesized compounds 10, 12–14, 16, 17 and 19–21 were tested for their inhibitory activity against insect (C. riparius) and porcine kidney trehalase.
as §1, with “Even if the synthesis unexpectedly afforded a structurally quite heterogeneous set of compounds, biological data give some hints toward the design of selective inhibitors of trehalases of different origin. Trehalase” for “Trehalase”
as §2, §3

C. riparius trehalase, sequence (J7EJ73 entry or part of it): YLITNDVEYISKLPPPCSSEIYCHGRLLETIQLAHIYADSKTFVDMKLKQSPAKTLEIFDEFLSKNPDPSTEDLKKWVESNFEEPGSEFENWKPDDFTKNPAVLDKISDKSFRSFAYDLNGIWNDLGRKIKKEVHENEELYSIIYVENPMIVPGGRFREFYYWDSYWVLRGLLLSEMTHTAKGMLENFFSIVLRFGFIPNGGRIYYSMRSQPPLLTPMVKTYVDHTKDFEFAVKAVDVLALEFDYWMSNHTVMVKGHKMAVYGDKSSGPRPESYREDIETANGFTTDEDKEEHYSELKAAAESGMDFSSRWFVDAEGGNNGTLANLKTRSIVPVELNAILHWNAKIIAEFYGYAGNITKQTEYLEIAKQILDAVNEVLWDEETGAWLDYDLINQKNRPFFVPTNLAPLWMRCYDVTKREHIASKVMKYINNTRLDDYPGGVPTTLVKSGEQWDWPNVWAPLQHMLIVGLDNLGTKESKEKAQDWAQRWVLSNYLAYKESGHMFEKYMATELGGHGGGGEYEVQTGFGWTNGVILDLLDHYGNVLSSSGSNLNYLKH

Compound: OC[C@H]1NC[C@H](O)[C@@H](O)[C@@H]1O [Compound 7, 1-deoxynojirimycin, reference compound]
- IC50 (porcine kidney trehalase [1]): 5.96 ± 0.62 µM
- selectivity between insect and porcine trehalase (times more active) (C. riparius trehalase): only twice as active on insect trehalase

Compound: CC[C@@H]1[C@H](O)[C@@H](O)[C@H](O)[C@@H](CO)N1C(=O)NCc1ccccc1 [Compound 8]
- IC50 (porcine kidney trehalase [1]; trehalose fixed at Km): 100 ± 8.82 µM

Compound: OC[C@H]1NC[C@@H](O)[C@@H]1O [Compound 9, DAB-1, reference compound]
- IC50 (porcine kidney trehalase [1]; trehalose fixed at Km): 10.6 ± 2.42 µM
- selectivity between insect and porcine trehalase (times more active) (C. riparius trehalase): twice more active on porcine trehalase

Compound: CCC[C@@H]1[C@H](O)[C@@H](O)[C@H](O)[C@@H](CO)N1C(=O)NCc1ccccc1 [Compound 10]
- inhibitory activity against insect trehalase (in words) (C. riparius trehalase): inhibitors only of insect trehalase
- inhibitory activity against porcine trehalase (in words) (porcine kidney trehalase [2]): no activity
- IC50 porcine kidney trehalase (porcine kidney trehalase [2]): no inhibition

Compound: NC(=O)N1C[C@H](O)[C@@H](O)[C@H](O)[C@H]1CO [Compound 12]
- selectivity between insect and porcine trehalase (times more active) (C. riparius trehalase): five times
- inhibitory activity against porcine trehalase (in words) (porcine kidney trehalase [2]): active
- IC50 (porcine kidney trehalase [2]): 154 ± 17 µM

Compound: CCC[C@H]1N[C@H](CO)[C@@H](O)[C@H](O)[C@H]1O [Compound 13]
- selectivity between insect and porcine trehalase (times more active) (C. riparius trehalase): around ten times more active towards insect trehalase; also recorded: ten-fold selectivity towards insect trehalase
- inhibitory activity against porcine trehalase (in words) (porcine kidney trehalase [2]): active
- IC50 (porcine kidney trehalase [2]): 109 ± 38 µM

Compound: CCC[C@H]1N[C@H](CO)[C@@H](O)[C@@H]1O [Compound 14]
- inhibitory activity against insect trehalase (in words) (C. riparius trehalase): inhibitors only of insect trehalase
- inhibitory activity against porcine trehalase (in words) (porcine kidney trehalase [2]): no activity
- IC50 porcine kidney trehalase (porcine kidney trehalase [2]): no inhibition

Compound: CCC[C@@H]1[C@@H](O)[C@H](O)[C@@H](CO)N1C(N)=O [Compound 16]
- inhibitory activity against insect trehalase (in words) (C. riparius trehalase): inhibitors only of insect trehalase
- inhibitory activity against porcine trehalase (in words) (porcine kidney trehalase [2]): no activity
- IC50 porcine kidney trehalase (porcine kidney trehalase [2]): no inhibition

Compound: CCC[C@@H]1N[C@H](CO)[C@@H](O)[C@H]1O [Compound 17]
- inhibitory activity against insect trehalase (in words) (C. riparius trehalase): do not possess any activity
- IC50 C. riparius trehalase (C. riparius trehalase): no inhibition
- inhibitory activity against porcine trehalase (in words) (porcine kidney trehalase [2]): do not possess any activity
- IC50 porcine kidney trehalase (porcine kidney trehalase [2]): no inhibition

Compound: CCC[C@H]1[C@H](O)[C@H](O)[C@@H](CO)N1C(N)=O [Compound 19]
- inhibitory activity against insect trehalase (in words) (C. riparius trehalase): do not possess any activity
- IC50 C. riparius trehalase (C. riparius trehalase): no inhibition
- inhibitory activity against porcine trehalase (in words) (porcine kidney trehalase [2]): do not possess any activity
- IC50 porcine kidney trehalase (porcine kidney trehalase [2]): no inhibition

Compound: CCCCCCCCN1C[C@@H](O)[C@H](O)[C@H]1CO [Compound 20]
- inhibitory activity against porcine trehalase (in words) (porcine kidney trehalase [2]): active
- IC50 (porcine kidney trehalase [2]): 537 ± 80 µM

Compound: CCCCCCCC[C@H]1N[C@H](CO)[C@@H](O)[C@@H]1O [Compound 21]
- IC50 C. riparius trehalase (C. riparius trehalase): no inhibition
- IC50 porcine kidney trehalase (porcine kidney trehalase [2]): no inhibition
